Data from US20100331315A1, “RHODANINES AND RELATED HETEROCYCLES AS KINASE INHIBITORS” (priority 2009, published 2010).
pIC50: −log10 of the molar value. Read-outs that look alike come from different tables or passages of the source.

Tests used:
[1] = biological target: recombinant PIM-1 (Homo sapiens, UniProt P11309); assay: PIM-1 assay (33P-ATP filter plate); assay type: biochemical; details: read-out: PIM1: IC50
Description: The following procedure was used to assay the PIM-1 kinase activity of compounds of the invention. Other methods for assaying PIM-1 and other PIM kinases, as well as methods to assay for activity against the various kinases are known in the art.
In a final reaction volume of 50 ul, recombinant PIM-1 (1 ng) was incubated with 12 mM MOPS pH 7.0, 0.4 mM EDTA, glycerol 1%, brij 35 0.002%, 2-mercaptoethanol 0.02%, BSA 0.2 mg/ml, 100 uM KKRNRTLTK, 10 mM MgAcetate, 15 uM ATP, [γ-^33P-ATP] (specific activity approx. 500 cpm/pmol), DMSO 4% and test inhibitor compound at the required concentration. The reaction was initiated by the addition of the Magnesium ATP mixture. After 40 min incubation at 23° C., the reactions were quenched by the addition of 100 ul 0.75% Phosphoric acid, and the labeled peptide collected by filtration through a phosphocellulose filter plate. The plate was washed 4 times with 0.075% phosphoric acid (100 ul per well) and then, after the addition of scintillation fluid (20 ul per well), the counts were measured by a scintillation counter.

[2] = test system: K-562; assay: Alamar Blue cell proliferation assay, K-562; assay type: cell-based; details: Homo sapiens
Description: (§1) A representative cell-proliferation assay protocol using Alamar Blue dye (stored at 4° C., use 20 ul per well) is described hereafter.
(§2) a. Split and trypsinize cells.
(§3) b. Count cells using hemocytometer.
(§4) c. Plate 4,000-5,000 cells per well in 100 μl of medium and seed into a 96-well plate according to the following plate layout. Add cell culture medium only to wells B10 to B12. Wells B1 to B9 have cells but no compound added.
(§5) d. Add 100 μl of 2× drug dilution to each well in a concentration shown in the plate layout above. At the same time, add 100 μl of media into the control wells (wells B10 to B12). Total volume is 200 μl/well.
(§6) e. Incubate four (4) days at 37° C., 5% CO2 in a humidified incubator.
(§7) f. Add 20 μl Alamar Blue reagent to each well.
(§8) g. Incubate for four (4) hours at 37° C., 5% CO2 in a humidified incubator.
(§9) h. Record fluorescence at an excitation wavelength of 544 nm and emission wavelength of 590 nm using a microplate reader.
(§10) In the assays, cells are cultured with a test compound for approximately four days, the dye is then added to the cells and fluorescence of […] dye is detected after approximately four hours. Different types of cells can be utilized in the assays (e.g., HCT-116 human colorectal carcinoma cells, PC-3 human prostatic cancer cells and MiaPaca human pancreatic carcinoma cells).

[3] = test system: MV-4-11; assay: Alamar Blue cell proliferation assay, MV-4-11; assay type: cell-based; details: Homo sapiens, MV4-11, MV-4-11, Table 1, read-out: AB: MV-4-11 IC50
Description: as §1, §2, §3, §4, §5, §6, §7, §8, §9, §10

[4] = test system: MDAMB231; assay: Alamar Blue cell proliferation assay, MDAMB231; assay type: cell-based; details: Homo sapiens, MDA-MB-231, MDAMB231, Table 1, read-out: AB: MDAMB231 IC50
Description: as §1, §2, §3, §4, §5, §6, §7, §8, §9, §10

[5] = test system: MiaPaca human pancreatic carcinoma cells; assay: Alamar Blue cell proliferation assay, MiaPaCa; assay type: cell-based; details: MIA PaCa-2, Table 1, read-out: AB: MiaPaCa IC50
Description: as §1, §2, §3, §4, §5, §6, §7, §8, §9, §10

[6] = test system: PC-3 human prostatic cancer cells; assay: Alamar Blue cell proliferation assay, PC3; assay type: cell-based
Description: as §1, §2, §3, §4, §5, §6, §7, §8, §9, §10

[7] = biological target: T1, recombinant human CK2 (Homo sapiens, UniProt P68400); assay: CK2 assay (cell-free, 33P-ATP filter plate); assay type: biochemical
T1 construct: purchased Upstate
T1 sequence (P68400 whole entry): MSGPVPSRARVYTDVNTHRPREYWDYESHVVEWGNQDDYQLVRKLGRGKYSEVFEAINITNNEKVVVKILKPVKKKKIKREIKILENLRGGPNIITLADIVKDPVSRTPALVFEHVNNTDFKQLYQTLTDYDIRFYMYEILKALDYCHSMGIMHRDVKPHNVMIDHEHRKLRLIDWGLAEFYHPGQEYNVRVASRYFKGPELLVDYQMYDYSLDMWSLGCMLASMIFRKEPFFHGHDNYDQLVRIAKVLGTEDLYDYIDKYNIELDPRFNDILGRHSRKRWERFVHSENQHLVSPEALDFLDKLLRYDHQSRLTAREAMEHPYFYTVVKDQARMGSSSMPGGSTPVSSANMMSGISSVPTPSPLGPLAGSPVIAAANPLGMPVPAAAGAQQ
T1 sequence (P67870 whole entry partner): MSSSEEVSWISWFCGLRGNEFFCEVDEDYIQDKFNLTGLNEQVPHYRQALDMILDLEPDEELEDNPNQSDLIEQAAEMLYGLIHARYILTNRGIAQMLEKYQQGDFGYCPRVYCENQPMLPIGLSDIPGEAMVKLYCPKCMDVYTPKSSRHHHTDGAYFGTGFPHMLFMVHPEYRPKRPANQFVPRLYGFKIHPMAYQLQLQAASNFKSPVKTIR
Description: Modulatory activity of compounds described herein was assessed in vitro in cell-free CK2 assays by the following method.
Test compounds in aqueous solution were added at a volume of 10 microliters, to a reaction mixture comprising 10 microliters Assay Dilution Buffer (ADB; 20 mM MOPS, pH 7.2, 25 mM beta-glycerolphosphate, 5 mM EGTA, 1 mM sodium orthovanadate and 1 mM dithiothreitol), 10 microliters of substrate peptide (RRRDDDSDDD, dissolved in ADB at a concentration of 1 mM), 10 microliters of recombinant human CK2 (25 ng dissolved in ADB; Upstate). Reactions were initiated by the addition of 10 microliters of ATP Solution (90% 75 mM MgCl2, 75 micromolar ATP dissolved in ADB; 10% [γ-^33P]ATP (stock 1 mCi/100 μl; 3000 Ci/mmol (Perkin Elmer) and maintained for 10 minutes at 30 degrees C. The reactions were quenched with 100 microliters of 0.75% phosphoric acid, then transferred to and filtered through a phosphocellulose filter plate (Millipore). After washing each well 5 times with 0.75% phosphoric acid, the plate was dried under vacuum for 5 min and, following the addition of 15 ul of scintillation fluid to each well, the residual radioactivity was measured using a Wallac luminescence counter.

[8] = K562, K-562, Table 1, read-out: AB: K-562 IC50
[9] = PC-3, PC3, Table 1, read-out: AB: PC3
[10] = K562, K-562, Table 4, read-out: AB: K-562 IC50
[11] = PC3, Table 4, read-out: AB: PC3 IC50

Sequence of recombinant PIM-1 (P11309 whole entry): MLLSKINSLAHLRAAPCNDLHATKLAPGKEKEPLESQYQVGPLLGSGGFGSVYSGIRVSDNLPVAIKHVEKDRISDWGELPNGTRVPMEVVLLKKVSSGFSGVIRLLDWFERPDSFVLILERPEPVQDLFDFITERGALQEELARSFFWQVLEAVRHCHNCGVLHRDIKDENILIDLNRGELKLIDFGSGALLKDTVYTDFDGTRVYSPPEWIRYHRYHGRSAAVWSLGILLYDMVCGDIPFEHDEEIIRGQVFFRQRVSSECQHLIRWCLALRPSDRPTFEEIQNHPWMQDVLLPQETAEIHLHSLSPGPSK

Compound | pIC50 ([1]; Table 1) | pIC50 [2, 8] | pIC50 [4] | pIC50 [5] | pIC50 [6, 9] | pIC50 ([7]; Table 1) | other results
CN1CCCN(C(=O)c2ccc(-c3ccc(/C=C4\SC(=S)NC4=O)o3)cc2)CC1 | 7.60 | < 5.00 | < 5.00 | < 5.00 | < 4.52 |  | pIC50 [3]: < 5.00
CN1CCN(C(=O)c2ccc(-c3ccc(/C=C4\SC(=S)NC4=O)o3)cc2)CC1 | 7.19 | < 5.00 | < 5.00 | < 5.00 | < 4.52 |  | pIC50 [3]: < 5.00
CCN1CCCC1CNC(=O)c1ccc(-c2ccc(/C=C3\SC(=S)NC3=O)o2)cc1 (stereo not shown) | 7.55 | < 5.00 | < 5.00 | 5.40 | < 4.52 |  | pIC50 [3]: 6.68
CN1CCC(N(C)C(=O)c2ccc(-c3ccc(/C=C4\SC(=S)NC4=O)o3)cc2)C1 (stereo not shown) | 7.43 | < 5.00 | < 5.00 | < 5.00 | < 4.52 |  | pIC50 [3]: < 5.00
CC(C)N1CCN(C(=O)c2ccc(-c3ccc(/C=C4\SC(=S)NC4=O)o3)cc2)CC1 | 7.17 | < 5.00 | < 5.00 | < 5.00 | < 4.52 |  | pIC50 [3]: < 5.00
O=C1NC(=S)S/C1=C\c1ccc(-c2cccc(C(=O)Nn3cnnc3)c2)o1 | 7.33 | < 5.00 | < 5.00 | < 5.00 | < 4.52 | 6.55 | 
O=C1NC(=S)S/C1=C\c1ccc(-c2ccc(Cl)c(C(=O)O)c2)o1 | 6.65 | < 5.00 | < 5.00 | < 5.00 |  | 6.97 | pIC50 [3]: < 5.00
CCN(CC)CCNC(=O)c1ccc(Cl)c(-c2ccc(/C=C3\SC(=S)NC3=O)o2)c1 | > 9.00 | 7.19 | < 5.00 |  | < 5.00 | 8.52 | pIC50 [3]: > 7.52
CCN(CC)CCNC(=O)c1cc(-c2ccc(/C=C3\SC(=S)NC3=O)o2)ccc1Cl | 8.70 | < 5.00 | < 5.00 | < 5.00 | < 5.00 | 8.00 | 
COCCNC(=O)c1cc(-c2ccc(/C=C3\SC(=S)NC3=O)o2)ccc1Cl | 7.38 | < 5.00 | < 5.00 | < 5.00 | < 5.00 | 7.27 | 
COCCNC(=O)c1ccc(Cl)c(-c2ccc(/C=C3\SC(=S)NC3=O)o2)c1 | 8.52 | 5.12 | < 5.00 | < 5.00 | < 5.00 | 8.00 | 
COC(=O)c1cccc(-c2ccc(CC3SC(=S)NC3=O)o2)c1 (stereo not shown) | 8.22 | < 5.00 | < 5.00 | < 5.00 |  | 8.52 | pIC50 [3]: < 5.00
CN1CCCN(C(=O)c2ccccc2-c2ccc(/C=C3\SC(=S)NC3=O)o2)CC1 | 5.89 |  |  |  |  | < 5.30 | 
O=C1NC(=S)S/C1=C\c1ccc(-c2ccccc2C(=O)O)o1 | 5.36 |  |  |  |  | 5.42 | 
NS(=O)(=O)c1ccc(-c2ccc(/C=C3\SC(=S)NC3=O)o2)cc1 | 7.82 |  |  |  | < 5.00 | 8.05 | 
O=C1NC(=O)/C(=C/c2ccc(-c3cccc(C(=O)O)c3)o2)S1 |  |  |  |  |  |  | pIC50 ([7]; Table 2): 6.93; pIC50 ([1]; Table 2): < 5.30
NS(=O)(=O)c1ccc(-c2ccc(/C=C3\SC(=O)NC3=O)o2)cc1 |  |  |  |  |  |  | pIC50 ([7]; Table 2): 7.46; pIC50 ([1]; Table 2): 7.29; pIC50 ([6]; PC3, Table 2, read-out: AB: PC3 IC50): < 5.00
O=C1NC(=O)/C(=C\c2ccc(-c3cccc(C(=O)O)c3)o2)N1 |  |  |  |  |  |  | pIC50 ([7]; Table 3): 5.69; pIC50 ([1]; Table 3): < 5.30
CN1C(=O)NC(=O)/C1=C\c1ccc(-c2cccc(C(=O)O)c2)o1 |  |  |  |  |  |  | pIC50 ([7]; Table 3): 5.84; pIC50 ([1]; Table 3): < 5.30
CN1C(=O)NC(=O)/C1=C\c1ccc(-c2ccc(C(=O)O)cc2)o1 |  |  |  |  |  |  | pIC50 ([7]; Table 3): 6.67; pIC50 ([1]; Table 3): 6.08
O=C1NC(=O)/C(=C\c2ccc(-c3ccc(C(=O)O)cc3)o2)N1 |  |  |  |  |  |  | pIC50 ([7]; Table 3): 6.78; pIC50 ([1]; Table 3): 6.09
CN1CCCN(C(=O)c2cccc(-c3ccc(/C=C4\C(=O)NC(=O)N4C)o3)c2)CC1 |  |  |  |  |  |  | pIC50 ([7]; Table 3): 5.74; pIC50 ([1]; Table 3): < 5.30
CN1CCCN(C(=O)c2cccc(-c3ccc(/C=C4/NC(=O)NC4=O)o3)c2)CC1 |  |  |  |  |  |  | pIC50 ([7]; Table 3): < 5.30; pIC50 ([1]; Table 3): < 5.30
NS(=O)(=O)c1ccc(-c2ccc(/C=C3\NC(=O)NC3=O)o2)cc1 |  |  |  |  |  |  | pIC50 ([7]; Table 3): 6.34; pIC50 ([1]; Table 3): 6.56
CN1CCCN(c2cncc(-c3cccc(/C=C4\SC(=O)NC4=O)c3)n2)CC1 |  |  |  |  |  |  | pIC50 ([7]; Table 4): 8.52; pIC50 ([1]; Table 4): 9.00; pIC50 [2, 10]: 7.12; pIC50 [6, 11]: 5.02
CN1CCCN(c2cncc(-c3ccc(/C=C4\SC(=O)NC4=O)o3)n2)CC1 |  |  |  |  |  |  | pIC50 ([7]; Table 4): 8.22; pIC50 ([1]; Table 4): 7.66; pIC50 [2, 10]: 6.84; pIC50 [6, 11]: < 5.00
CN1CCCN(c2cncc(-c3ccc(/C=C4\NC(=O)NC4=O)o3)n2)CC1 |  |  |  |  |  |  | pIC50 ([7]; Table 4): 6.64; pIC50 ([1]; Table 4): 5.73
CN1CCCN(c2cncc(-c3cccc(/C=C4\SC(=S)NC4=O)c3)n2)CC1 |  |  |  |  |  |  | pIC50 ([7]; Table 4): 9.00; pIC50 ([1]; Table 4): > 9.00; pIC50 [2, 10]: > 7.52; pIC50 [6, 11]: 5.46
CN1CCCN(c2cncc(-c3ccc(/C=C4\SC(=S)NC4=O)o3)n2)CC1 |  |  |  |  |  |  | pIC50 ([7]; Table 4): 7.74; pIC50 ([1]; Table 4): 6.85; pIC50 [6, 11]: < 5.00
